Results reported in patent publication US4092426A, “Novel aminobenzoic acid derivatives, process for preparing the same and pharmaceutical composition containing the same” (Chugai Seiyaku Kabushiki Kaisha, priority 1975, dated 1978).

Experiments:
[1] = system: triglyceride in liver; experiment: Action for decreasing triglyceride in liver (ethanol-induced); assay type: in vivo, Sprague Dawley strain female rats; conditions: Rattus norvegicus, po, 24 h, oral 100 mg/kg, 30 min before ethanol 6 g/kg, read-out: % Prevention (of increase in triglyceride content in the liver)
Experimental: Sprague Dawley strain female rats each weighing 170 - 200 g which had been fasted for 15 hours were divided into groups of 4 rats each. The rats were orally administered a different test compound in a dose of 100 mg/kg, and 30 minutes after the administration, orally administered ethanol in a dose of 6 g/kg. Twenty-four hours after the administration of ethanol, the liver of each rat was taken out and neutral lipid level in the liver was measured in a conventional manner to calculate the ratio of preventing an increase in triglyceride content in the liver. For a control group, ethanol and, for the other control group, a glucose aqueous solution equivalent in calorific value to the same amount of ethanol were used and the same manner as those of test groups, and for the positive control group, commercially available 2-mercaptopropionylglycine was used instead of the test compound.
*The % prevention was calculated by the following

[2] = system: Pseudomonas aeruginosa Pa-II; experiment: Activity for Protecting from Infection by Bucillus Pyocyaneous, with carbenicillin; assay type: in vivo; conditions: mouse, test compound (combination arm) 2 mg/head oral; for Number of Survival Animals/Number of Tested Animals: 54 hours
Experimental: As test animals, ddY strain male mice (5 week old) which were divided into groups of 9 members each were used. Each mouse was intraperitoneally administered with 10^6 Pseudomonas aeruginosa Pa-II, and 1.5 hours after the administeration, subcutaneously administered one shot of carbenicillin, an antibiotic. The test compound, disodium salt of N-2'-carboxyphenyl-4-chloroanthranilic acid, was orally administered once a day in a dose of 2 mg/head one and two days before the inoculation, respectively. The activity of the test compound was evaluated by observing the test animals for 54 hours after the inoculation.

[3] = system: plaque forming cells (PFC) in the spleen; experiment: Activity for Recovering Immune Depletion by cortisone: plaque forming cells (PFC) in the spleen; assay type: in vivo, IV CS strain male mice; conditions: cortisone 60 mg/kg i.p. alone
Experimental: As test animals, IV CS strain male mice (5 week old) were used by dividing them into groups of 5 members each. Each mouse was intraperitoneally administered with cortisone in a dose of 60 mg/kg once a day for 5 days. Three days after the first administration, the sensitization with an antigen, sheep red blood cell (SRBC), was made by injecting the antigen into the mouse through the tail vein. Each mouse was orally administered with the test compound, disodium salt of N-2'-carboxyphenyl-4-chloroanthranilic acid, a day after the sensitization. Five days after the sensitization, the number of plaque forming cells (PFC) in the spleen was measured in a usual manner.

[4] = system: concentration of BSP in blood; experiment: Bromosulfophthalein (BSP) Test; assay type: in vivo, Sprague Dawley strain female rats; conditions: rat, oral 100 mg/kg; BSP 28 mg/head i.v.; 30 min after; ** P<0.01
Experimental: Sprague Dawley strain female rats each weighing 150 - 190 g which had been fasted for 15 hours were divided into groups of 4 rats each. The rats were orally administered a different test compound in a dose of 100 mg/kg, and 60 minutes after the administration, each of the rats was injected through the tail vein with 28 mg/head of BSP. Thirty minutes after the injection, the blood of each rat was sampled from the heart and the concentration of BSP was determined in a conventional colorimetric manner. As control, a physiological saline solution was orally administered instead of the test compound.

[5] = system: concentration of ICG in the blood; experiment: Indocyanogree (ICG) Test; assay type: in vivo, Sprague Dawley strain male rats; conditions: rat, oral 100 mg/kg; ICG 2 mg/head i.v.; 15 min after; ** P<0.02
Experimental: Sprague Dawley strain male rats weighing 180 - 210 g which had been fasted for 15 hours were divided into groups of 4 rats each. The rats were orally administered a different test compound in a dose of 100 mg/kg, and 60 minutes after the administration, each of the rats was injected through the tail vein with 2 mg/head of ICG. Fifteen minutes after the injection, the blood of each rat was sampled from the heart and the concentration of ICG in the blood was determined in a conventional colorimetric manner. As control, a physiological saline solution was used.

[6] = system: concentration of bilirubin in the blood; experiment: Bilirubin Excretion Activity; assay type: in vivo, Sprague Dawley strain female rats; conditions: rat, oral 100 mg/kg; bilirubin i.v.; 20 min after; ** P<0.02
Experimental: Sprague Dawley strain female rats each weighing 160 - 200 g which had been fasted for 15 hours were divided into groups of 6 rats each. The rats were orally administered with a different test compound in a dose of 100 mg/kg, and 60 minutes after the administration, each of the rats was injected through the tail vein with […] of bilirubin. Twenty minutes after the injection, the blood of each rat was sampled from the heart and the concentration of bilirubin in the blood was determined in a conventional manner.
As control, a physiological saline solution was used instead of the test compound.

[7] = system: plaque forming cells; experiment: Increase in Number of Plaque Forming Cells after sensitization with SRBC (Jerne's plaque method); assay type: in vivo, Sprague Dawley strain male rats
Experimental: (§1) Sprague Dawley strain male rats weighing 200 - 220 g which were divided into 7 groups of 5 or 6 rats each were used as test animals.
(§2) The six groups were orally administered by one shot with the test compound, N-2'-carboxyphenyl-4-chloroanthranilic acid in a dose of 100 mg/kg on six different days, a day before the sensitization, on the date, a day after, two days after, three days after and four days after the sensitization with an antigen (SRBC: Sheep red blood cell). The SRBC was intraveneously injected in the rat through the tail vein in an amount of 1 ml as a 2% aqueous suspension. For control groups, a physiological saline solution was used in the same amount and in the same manner as those of the test groups on the day of sensitization.
(§3) Five days after the sensitization, the rats were sacrificed and the spleen of each of the rats was taken out and the blood was sampled.
(§4) The number of plaque forming cells and titers in blood were determined by the Jerne's plaque method and a hemolysing method, respectively.

[8] = system: antibody in blood; experiment: Titer of Antibody in Blood after sensitization with SRBC (hemolysing method); assay type: in vivo, Sprague Dawley strain male rats; conditions: administered on the day and a day after the sensitization with SRBC
Experimental: as §1, §2, §3, §4

[9] = Acute Toxicity; set-up: species or system Wistar-Imamichi strain male and female rats; conditions: rat, in vivo, po, suspension in 5% gum arabi
Experimental: Acute toxicity of N-2'-carboxyphenyl-4-chloroanthranilic acid was determined using Wistar-Imamichi strain male and female rats (11 week old) as test animals. The test compound was orally administered as a suspension in a 5% gum arabi aqueous solution.

CC(S)C(=O)NCC(=O)O (stereo not shown) [2-mercaptopropionylglycine, reference compound]
inhibition in vivo at 100 mg/kg [1]: 9.3%

CC1(C)S[C@@H]2[C@H](NC(=O)C(C(=O)O)c3ccccc3)C(=O)N2[C@H]1C(=O)O (stereo partly shown) [Carbenicillin, carbenicillin]
Number of Survival Animals/Number of Tested Animals ([2]; Carbenicillin 10 mg/head s.c.): 0/9 | Number of Survival Animals/Number of Tested Animals ([2]; Carbenicillin 20 mg/head s.c.): 2/9 | Number of Survival Animals/Number of Tested Animals ([2]; Carbenicillin 40 mg/head s.c.): 9/9 | ED50 (dose of carbenicillin) ([2]; 10^6 Pseudomonas aeruginosa Pa-II i.p.): 24.1 mg/head

C[C@]12CCC(=O)C=C1CC[C@@H]1[C@@H]2C(=O)C[C@@]2(C)[C@H]1CC[C@]2(O)C(=O)CO [Cortisone, cortisone, reference compound]
number of PFC per spleen vs control without cortisone [3]: reduced to one third

Cc1ccc(C)c(C(=O)O)c1Nc1cc(Cl)ccc1C(=O)O [N-2'-carboxy-3',6'-dimethylphenyl-4-chloroanthranilic acid]
inhibition in vivo at 100 mg/kg [1]: 45.8%

Cc1ccc(Nc2cc(Cl)ccc2C(=O)O)c(C(=O)O)c1 [N-2'-carboxy-4'-methylphenyl-4-chloroanthranilic acid]
inhibition in vivo at 100 mg/kg [1]: 53.2%

O=C(O)c1ccc(Cl)cc1Nc1cc(Cl)ccc1C(=O)O [N-2'-carboxy-5'-chlorophenyl-4-chloroanthranilic acid]
inhibition in vivo at 100 mg/kg [1]: 57.2%

Cc1cccc(C(=O)O)c1Nc1cc(Cl)ccc1C(=O)O [N-2'-carboxy-6'-methylphenyl-4-chloroanthranilic acid]
inhibition in vivo at 100 mg/kg [1]: 25.2%

Cc1c(Cl)ccc(C(=O)O)c1Nc1ccccc1C(=O)O [N-2'-carboxyphenyl-4-chloro-3-methylanthranilic acid]
inhibition in vivo at 100 mg/kg [1]: 40.5%

O=C(O)c1ccccc1Nc1cc(Cl)ccc1C(=O)O [N-2'-carboxyphenyl-4-chloroanthranilic acid]
inhibition in vivo at 100 mg/kg [1]: 67.1% | % Remain of BSP [4]: 17.3±8.4% | % Remain of ICG [5]: 5.1 ± 0.2% | % Remain of Bilirubin [6]: 39.7 ± 13.3% | Number of plaque forming cell/10^6 cells ([7]; 100 mg/kg oral, day 0 based on the sensitization, P<0.01): 193.4 ± 26.6 cell/10^6 cells | Number of plaque forming cell/10^6 cells ([7]; 100 mg/kg oral, day +1 based on the sensitization, P<0.01): 316.8 ± 38.2 cell/10^6 cells | Number of plaque forming cell/10^6 cells ([7]; 100 mg/kg oral, day +2 based on the sensitization): 76.5 ± 16.3 cell/10^6 cells | Number of plaque forming cell/10^6 cells ([7]; 100 mg/kg oral, day +3 based on the sensitization): 101.0 ± 11.2 cell/10^6 cells | Number of plaque forming cell/10^6 cells ([7]; 100 mg/kg oral, day +4 based on the sensitization): 95.5 ± 35.3 cell/10^6 cells | Number of plaque forming cell/10^6 cells ([7]; 100 mg/kg oral, day -1 based on the sensitization, control 49.7 ± 16.0): 93.2 ± 28.6 cell/10^6 cells | increase in number of plaque forming cells relative to control group ([7]; 100 mg/kg oral, maximum vs control): about six times as much as the value of the control group | increase in the number of plaque forming cells ([7]; administered on the date and a day after the sensitization): significant increase | increase in titers in blood [8]: significant increase | LD50 ([9]; female rat): 2600 mg/kg | LD50 ([9]; male rat): 2100 mg/kg

O=C(O)c1ccccc1Nc1ccc(Cl)cc1C(=O)O [N-2'-carboxyphenyl-5-chloroanthranilic acid]
inhibition in vivo at 100 mg/kg [1]: 30%

Cc1ccc(Nc2ccccc2C(=O)O)c(C(=O)O)c1 [N-2'-carboxyphenyl-5-methylanthranilic acid]
inhibition in vivo at 100 mg/kg [1]: 20.1%
